According to US20120220581A1, “IMIDAZO[1,2-b]PYRIDAZINE DERIVATIVES AND THEIR USE AS PDE10 INHIBITORS” (Janssen-Cilag, S.A., priority 2009, published 2012):

How the values were obtained:
[1] = molecular target: T1, Rat recombinant PDE10A (rPDE10A2) (Rattus norvegicus, UniProt Q9QYJ6); assay: In vitro assay PDE10A (SPA, 3H-cAMP); assay type: biochemical; settings: pIC50 corresponds to the −log IC50 expressed in mol/L; read-out: PDE10A2 pIC50 (converted)
T1 construct: inferred from the Ni metal chelate purification; made in house; host or cells: Sf9 insect cells (baculovirus)
T1 sequence (Q9QYJ6 1-794): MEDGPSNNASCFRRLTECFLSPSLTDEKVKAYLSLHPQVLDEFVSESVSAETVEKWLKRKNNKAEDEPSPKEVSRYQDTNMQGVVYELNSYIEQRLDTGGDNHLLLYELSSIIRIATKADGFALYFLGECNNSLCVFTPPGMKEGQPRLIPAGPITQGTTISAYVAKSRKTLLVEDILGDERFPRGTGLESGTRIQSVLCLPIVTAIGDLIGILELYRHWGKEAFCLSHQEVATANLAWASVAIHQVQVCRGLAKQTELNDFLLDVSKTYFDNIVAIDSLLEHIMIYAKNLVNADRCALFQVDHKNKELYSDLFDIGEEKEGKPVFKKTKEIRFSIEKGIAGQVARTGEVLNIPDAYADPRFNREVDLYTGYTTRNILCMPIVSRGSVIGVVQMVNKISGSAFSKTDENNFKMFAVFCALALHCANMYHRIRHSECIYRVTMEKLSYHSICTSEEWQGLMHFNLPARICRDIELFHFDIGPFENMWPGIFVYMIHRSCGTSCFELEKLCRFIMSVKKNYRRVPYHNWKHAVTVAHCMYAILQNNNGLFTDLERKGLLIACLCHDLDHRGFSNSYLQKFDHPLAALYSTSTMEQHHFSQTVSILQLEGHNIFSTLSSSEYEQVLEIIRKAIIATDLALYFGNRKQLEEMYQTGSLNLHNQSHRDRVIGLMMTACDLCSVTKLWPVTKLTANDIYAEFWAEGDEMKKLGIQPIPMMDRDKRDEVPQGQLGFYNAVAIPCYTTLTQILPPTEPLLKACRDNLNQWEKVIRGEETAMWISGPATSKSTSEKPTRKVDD
Experimental: Rat recombinant PDE10A (rPDE10A2) was expressed in Sf9 cells using a recombinant rPDE10A baculovirus construct. Cells were harvested after 48 h of infection and the rPDE10A protein was purified by metal chelate chromatography on Ni-sepharose 6FF. Tested compounds were dissolved and diluted in 100% DMSO to a concentration 100 fold of the final concentration in the assay. Compound dilutions (0.4 μl) were added in 384 well plates to 20 μl of incubation buffer (50 mM Tris pH 7.8, 8.3 mM MgCl2, 1.7 mM EGTA). 10 μl of rPDE10A enzyme in incubation buffer was added and the reaction was started by addition of 10 μl substrate to a final concentration of 60 nM cAMP and 0.008 μCi ^3H-cAMP. The reaction was incubated for 60 minutes at room temperature. […] After sedimentation of the beads during 30 minutes the radioactivity was measured in a Perkin Elmer Topcount scintillation counter and results were expressed as cpm. For blanc values the enzyme was omitted from the reaction and replaced by incubation buffer. Control values were obtained by addition of a final concentration of 1% DMSO instead of compound. The same assay principle is applied for the measurement of the affinity of the compound for other members of the PDE family with appropriate modifications in incubation buffer, substrate concentration, incubation time and stop solution.

[2] = tested on: apomorphine-induced stereotypy in rats; assay: Apomorphine-induced stereotypy in rats (APO); assay type: in vivo; settings: Rattus norvegicus, n.d.: found not active at threshold dose 2.5 mg/kg or 10 mg/kg (a)
Experimental: Apomorphine (1.0 mg/kg, i.v.)-induced stereotypy (compulsive sniffing, licking, chewing) was scored every 5 min over the first hour after injection of apomorphine, following a 1 hour interval pre-treatment with the test compound. The score system was: (3) pronounced, (2) moderate, (1) slight, and (0) absent.

[3] = po, * not soluble, tested orally as a suspension

Cc1nc2c(-c3ccncc3)cc(C3CC3)nn2c1-c1ccc(N2CCOCC2)nc1 [compound 58, 6-cyclopropyl-2-methyl-3-[6-(4-morpholinyl)-3-pyridinyl]-8-(4-pyridinyl)-imidazo[1,2-b]pyridazine]
IC50 [1]: 186 nM
ED50 ([2]; not further tested): > 2.5 mg/kg

COCCc1ccc(-c2c(C)nc3c(-c4ccncc4)cc(C4CC4)nn23)cn1 [compound 14, 6-cyclopropyl-3-[6-(2-methoxyethyl)-3-pyridinyl]-2-methyl-8-(4-pyridinyl)-imidazo[1,2-b]pyridazine]
IC50 [1]: 120 nM
ED50 ([2]; not further tested): > 2.5 mg/kg

COC(C)(C)Cn1cc(-c2c(C)nc3c(-c4ccncc4)ccnn23)cn1 [compound 123, 3-[1-(2-methoxy-2-methylpropyl)-1H-pyrazol-4-yl]-2-methyl-8-(4-pyridinyl)-imidazo[1,2-b]pyridazine]
IC50 [1]: 27.5 nM
ED50 ([2]; not further tested): > 2.5 mg/kg

CCOCCc1ccc(-c2c(C)nc3c(N4CCOCC4)ccnn23)cn1 [compound 25, 3-[6-(2-ethoxyethyl)-3-pyridinyl]-2-methyl-8-(4-morpholinyl)-imidazo[1,2-b]pyridazine]
IC50 [1]: 33.9 nM
ED50 [2, 3]: > 2.5 mg/kg

CCc1ccc(-c2c(C)nc3c(-c4ccncc4)cc(C4CC4)nn23)cn1 [compound 86, 6-cyclopropyl-3-(6-ethyl-3-pyridinyl)-2-methyl-8-(4-pyridinyl)-imidazo[1,2-b]pyridazine]
IC50 [1]: 263 nM
ED50 ([2]; not further tested): > 2.5 mg/kg

COCCOc1ccc(-c2c(C3CC3)nc3c(N4CCOCC4)ccnn23)cn1 [compound 73, 2-cyclopropyl-3-[6-(2-methoxyethoxy)-3-pyridinyl]-8-(4-morpholinyl)-imidazo[1,2-b]pyridazine]
IC50 [1]: 97.7 nM
ED50 ([2]; not further tested): > 2.5 mg/kg

COCCOc1ncc(-c2c(C)nc3c(-c4ccncc4)ccnn23)cc1C [compound 8, 3-[6-(2-methoxyethoxy)-5-methyl-3-pyridinyl]-2-methyl-8-(4-pyridinyl)-imidazo[1,2-b]pyridazine]
IC50 [1]: 162 nM
ED50 ([2]; not further tested): > 2.5 mg/kg

Cc1nc2c(-c3ccncc3)ccnn2c1-c1ccc(N2CCNCC2)nc1 [compound 97, 2-methyl-3-[6-(1-piperazinyl)-3-pyridinyl]-8-(4-pyridinyl)-imidazo[1,2-b]pyridazine]
IC50 [1]: 141 nM
ED50 ([2]; not further tested): > 2.5 mg/kg

Cc1nc2c(N3CCOCC3)cc(C3CC3)nn2c1-c1ccc(C2CCOCC2)nc1 [compound 78, 6-cyclopropyl-2-methyl-8-(4-morpholinyl)-3-[6-(tetrahydro-2H-pyran-4-yl)-3-pyridinyl]-imidazo[1,2-b]pyridazine]
IC50 [1]: 123 nM
ED50 ([2]; not further tested): > 2.5 mg/kg

CCc1ccc(-c2c(C)nc3c(N4CCOCC4)cc(C4CC4)nn23)cn1 [compound 107, 6-cyclopropyl-3-(6-ethyl-3-pyridinyl)-2-methyl-8-(4-morpholinyl)-imidazo[1,2-b]pyridazine]
IC50 [1]: 269 nM
ED50 ([2]; not further tested): > 2.5 mg/kg

Cc1nc2c(N3CCOCC3)ccnn2c1-c1ccnc(NC(C)C)c1 [compound 93, N-(1-methylethyl)-4-[2-methyl-8-(4-morpholinyl)imidazo[1,2-b]pyridazin-3-yl]-2-pyridinamine]
IC50 [1]: 25.1 nM
ED50 ([2]; not further tested): > 2.5 mg/kg

Cc1nc2c(-c3ccncc3)ccnn2c1-c1ccc(C2CC2)nc1 [compound 111, 3-(6-cyclopropyl-3-pyridinyl)-2-methyl-8-(4-pyridinyl)-imidazo[1,2-b]pyridazine]
IC50 [1]: 97.7 nM
ED50 ([2]; not further tested): > 2.5 mg/kg

COC(C)(C)Cc1ccc(-c2c(C)nc3c(-c4ccncc4)cc(C4CC4)nn23)cn1 [compound 40, 6-cyclopropyl-3-[6-(2-methoxy-2-methylpropyl)-3-pyridinyl]-2-methyl-8-(4-pyridinyl)-imidazo[1,2-b]pyridazine]
IC50 [1]: 117 nM
ED50 ([2]; not further tested): > 2.5 mg/kg

COCCn1cc(-c2c(C(F)(F)F)nc3c(N4CCOCC4)ccnn23)cn1 [compound 139, 3-[1-(2-methoxyethyl)-1H-pyrazol-4-yl]-8-(4-morpholinyl)-2-(trifluoromethyl)-imidazo[1,2-b]pyridazine]
IC50 [1]: 69.2 nM
ED50 [2, 3]: > 2.5 mg/kg

Cc1ccc(-c2c(C)nc3c(N4CCOCC4)ccnn23)cn1 [compound 39, 2-methyl-3-(6-methyl-3-pyridinyl)-8-(4-morpholinyl)-imidazo[1,2-b]pyridazine]
IC50 [1]: 70.8 nM
ED50 ([2]; not further tested): > 2.5 mg/kg

c1cc(-c2ccnn3c(-c4ccc(N5CCNCC5)nc4)c(C4CC4)nc23)ccn1 [compound 102, 2-cyclopropyl-3-[6-(1-piperazinyl)-3-pyridinyl]-8-(4-pyridinyl)-imidazo[1,2-b]pyridazine]
IC50 [1]: 44.7 nM
ED50 ([2]; not further tested): > 2.5 mg/kg

CCOC(C)(C)c1ccc(-c2c(C)nc3c(N4CCOCC4)ccnn23)cn1 [compound 5, 3-[6-(1-ethoxy-1-methylethyl)-3-pyridinyl]-2-methyl-8-(4-morpholinyl)-imidazo[1,2-b]pyridazine]
IC50 [1]: 19.1 nM
ED50 ([2]; not further tested): > 2.5 mg/kg

COCCc1ccc(-c2c(C)nc3c(N4CCOCC4)cc(C4CC4)nn23)cn1 [compound 13, 6-cyclopropyl-3-[6-(2-methoxyethyl)-3-pyridinyl]-2-methyl-8-(4-morpholinyl)-imidazo[1,2-b]pyridazine]
IC50 [1]: 195 nM
ED50 ([2]; not further tested): > 2.5 mg/kg

COCCc1ccc(-c2c(C3CC3)nc3c(N4CCOCC4)cc(C)nn23)cn1 [compound 15, 2-cyclopropyl-3-[6-(2-methoxyethyl)-3-pyridinyl]-6-methyl-8-(4-morpholinyl)-imidazo[1,2-b]pyridazine]
IC50 [1]: 302 nM
ED50 [2, 3]: > 2.5 mg/kg

CO[C@@H]1CCN(c2ccc(-c3c(C)nc4c(N5CCOCC5)ccnn34)cn2)C1 [compound 34, 3-[6-[(3R)-3-methoxy-1-pyrrolidinyl]-3-pyridinyl]-2-methyl-8-(4-morpholinyl)-imidazo[1,2-b]pyridazine]
IC50 [1]: 117 nM
ED50 ([2]; not further tested): > 2.5 mg/kg

Cc1nc2c(N3CCOCC3)ccnn2c1-c1ccnc(N2CCCC2)c1 [compound 92, 2-methyl-8-(4-morpholinyl)-3-[2-(1-pyrrolidinyl)-4-pyridinyl]-imidazo[1,2-b]pyridazine]
IC50 [1]: 57.5 nM
ED50 ([2]; not further tested): > 2.5 mg/kg

COC(C)(C)Cc1ccc(-c2c(C3CC3)nc3c(N4CCOCC4)cc(C)nn23)cn1 [compound 53, 2-cyclopropyl-3-[6-(2-methoxy-2-methylpropyl)-3-pyridinyl]-6-methyl-8-(4-morpholinyl)-imidazo[1,2-b]pyridazine]
IC50 [1]: 214 nM
ED50 ([2]; not further tested): > 2.5 mg/kg

Cc1nc2c(N3CCOCC3)ccnn2c1-c1ccc(CCOC(C)C)nc1 [compound 76, 2-methyl-3-[6-[2-(1-methylethoxy)ethyl]-3-pyridinyl]-8-(4-morpholinyl)-imidazo[1,2-b]pyridazine]
IC50 [1]: 50.1 nM
ED50 ([2]; not further tested): > 2.5 mg/kg

CCc1ccc(-c2c(C)nc3c(N4CCOCC4)cc(C)nn23)cn1 [compound 108, 3-(6-ethyl-3-pyridinyl)-2,6-dimethyl-8-(4-morpholinyl)-imidazo[1,2-b]pyridazine]
IC50 [1]: 155 nM
ED50 ([2]; not further tested): > 2.5 mg/kg

COCCc1ccc(-c2c(C)nc3c(N4CCOCC4)cc(C(F)(F)F)nn23)cn1 [compound 64, 3-[6-(2-methoxyethyl)-3-pyridinyl]-2-methyl-8-(4-morpholinyl)-6-(trifluoromethyl)-imidazo[1,2-b]pyridazine]
IC50 [1]: 479 nM
ED50 [2, 3]: > 2.5 mg/kg

Cc1cc(-c2ccncc2)c2nc(C)c(-c3ccc(N4CCNCC4)nc3)n2n1 [compound 96, 2,6-dimethyl-3-[6-(1-piperazinyl)-3-pyridinyl]-8-(4-pyridinyl)-imidazo[1,2-b]pyridazine]
IC50 [1]: 186 nM
ED50 ([2]; not further tested): > 2.5 mg/kg
